According to patent US20210308089A1, “METHODS OF TREATING AND/OR PREVENTING VIRAL INFECTIONS AND/OR DISEASES CAUSED BY VIRUSES IN A SUBJECT IN NEED THEREOF” (priority 2020, published 2021):

Tested on: hs-CRP, D-dimer, ESR, blood counts, NLR, systemic immune-inflammation index
Experiment: VASCEPA-COVID-19: inflammatory biomarkers, baseline to day 14 follow-up, IPE vs usual care
Assay type: in vivo, human
Method: This was a 14-day long, prospective, multi-site, two-armed, randomized, open-label study of approximately 100 individuals in Canada with a COVID-19-positive diagnosis or who have recently undergone testing for SARS-CoV-2. […] Blood samples are collected to determine if IPE use lowers circulating pro-inflammatory biomarkers.
Eligible patients were randomly allocated to the IPE group or the usual care group. Randomization was performed using envelope randomization via stratification using random permuted blocks. Patients allocated to the IPE group received a loading dose of 4 g IPE twice daily for 3 days followed by 2 g twice daily for 11 days. The usual care group received no intervention. Participant characteristics were obtained at baseline, while blood samples and clinical outcomes were obtained/measured at baseline and at follow-up.
The primary biomarker endpoint was the change in high-sensitivity C-reactive protein (hs-CRP) levels from baseline (day 1) to follow-up (day 14+3) within-groups. D-dimer, erythrocyte sedimentation rate (ESR), complete blood count, differential count, serum albumin levels, the neutrophil-to-lymphocyte ratio (NLR), and the systemic immune-inflammation index (defined by platelet count multiplied by NLR) from baseline to follow-up were secondary biomarker endpoints. The clinical endpoint was the change in InFLUenza Patient-Reported Outcome (FLU-PRO©) diary scores (total and domain breakdown). The FLU-PRO© score is designed to evaluate the presence, severity, and duration of influenza symptoms in clinical trials and standardize symptom assessment with respect to viral infections. The diary provides a comprehensive evaluation of symptomology over 32 distinct questions. Respondents answer on an ordinal scale from 0-4 across six domains: Body/Systemic, Chest/Respiratory, Eyes, Gastrointestinal, Nose, and Throat. The validity and reliability of the FLU-PRO© diary has been investigated. The ability to successfully adapt the measure for COVID-19 experimentation has also been explained (www.evidera.com/flu-pro/). […] Additional clinical endpoints included measuring FLU-PRO© symptom prevalence and investigating correlations between improvements in FLU-PRO© and decreases in hs-CRP levels.
Baseline characteristics, biomarkers, and clinical endpoints were described as frequencies and percentages (for categorical data) or medians with interquartile ranges (for continuous variables). Cohort comparisons were performed with the Wilcoxon Signed Rank (within-group), Mann-Whitney U (between group, continuous variables) or Fisher's Exact (between group, categorical variables) statistical tests. Within- and between-group p-values describing clinical (FLU-PRO©) score changes were conducted using a Wald test on least squares-mean estimated treatment difference, from an analysis of variance (ANOVA) model. Within- and between-group comparisons for the primary biomarker endpoint included median change from baseline. hs-CRP analyses were conducted with unadjusted and adjusted data (for sex, age [men <45 versus ≥45 years and women <55 versus ≥55 years], and baseline cardiovascular risk [absence or presence of cardiovascular comorbidities]). The model adjustments for baseline covariates were warranted based on current literature. Remaining unadjusted secondary biomarker data were evaluated via two-tailed within-group Wilcoxon Signed Rank Tests and between-group Mann-Whitney Tests. The prevalence and change from baseline total and individual domain FLU-PRO© scores were calculated as measures of alterations in symptom severity. Correlations between FLU-PRO© score improvement and hs-CRP reduction were calculated using the Spearman correlation coefficient. A p-value of less than 0.05 was considered significant without multiplicity adjustment, and all analyses were conducted using a modified intention-to-treat model.

[1] = 14 + 3 Days, n = 44, within-group P 0.07
[2] = 14 + 3 Days, n = 44, within-group P <0.01

CC/C=C\C/C=C\C/C=C\C/C=C\C/C=C\CCCC(=O)OCC [icosapent ethyl, eicosapentaenoic acid ethyl ester]
hs-CRP median, 14 + 3 Days (14 + 3 Days, n = 44, IQR 0.6, 4.4): 1.6 mg/L
SII (systemic immune-inflammation index, median), 14 + 3 Days (14 + 3 Days, n = 44, product of NLR*platelets, within-group P <0.01): 4.319e+11 L⁻¹
WBC Differential, Lymphocytes (median), 14 + 3 Days (14 + 3 Days, n = 44, within-group P 0.01): 2.4e+09 L⁻¹
MCV (median), 14 + 3 Days (14 + 3 Days, n = 44, within-group P 0.03): 87.5 fL
NLR (neutrophil-lymphocyte ratio, median), 14 + 3 Days [1]: 1.6
WBC Differential, Basophils (median), 14 + 3 Days [1]: 0 L⁻¹
WBC Differential, Eosinophils (median), 14 + 3 Days [1]: 1e+08 L⁻¹
WBC Differential, Monocytes (median), 14 + 3 Days (14 + 3 Days, n = 44, within-group P 0.08): 6e+08 L⁻¹
RDW (median), 14 + 3 Days (14 + 3 Days, n = 44, within-group P 0.14): 12.5 % CV
eGFR (median), 14 + 3 Days (14 + 3 Days, n = 44, within-group P 0.17): 87.0 mL/min/1.73 m^2
Lipid Assessment, Triglycerides (median), 14 + 3 Days (14 + 3 Days, n = 44, within-group P 0.19): 1.5 mmol/L
ESR (median), 14 + 3 Days (14 + 3 Days, n = 44, within-group P 0.20): 15.5 mm/hr
Creatinine (median), 14 + 3 Days (14 + 3 Days, n = 44, within-group P 0.21): 73.5 µmol/L
MCHC (median), 14 + 3 Days (14 + 3 Days, n = 44, within-group P 0.22): 339.5 g/L
MCH (median), 14 + 3 Days (14 + 3 Days, n = 44, within-group P 0.40): 29.4 pg
Albumin (median), 14 + 3 Days (14 + 3 Days, n = 44, within-group P 0.88): 43.0 g/L
HbA1C (median), 14 + 3 Days [2]: 5.1%
Hematocrit (median), 14 + 3 Days [2]: 0.4 L/L
Hemoglobin (median), 14 + 3 Days [2]: 130.5 g/L
Lipid Assessment, HDL-C (median), 14 + 3 Days [2]: 1.2 mmol/L
Lipid Assessment, LDL-C (median), 14 + 3 Days [2]: 2.5 mmol/L
Lipid Assessment, Non-HDL-C (median), 14 + 3 Days [2]: 3.3 mmol/L
Lipid Assessment, Total Cholesterol (median), 14 + 3 Days [2]: 4.7 mmol/L
Platelet (median), 14 + 3 Days [2]: 2.615e+11 L⁻¹
RBC Count (median), 14 + 3 Days [2]: 4.7e+12 L⁻¹
WBC Count (median), 14 + 3 Days [2]: 7.3e+09 L⁻¹
WBC Differential, Neutrophils (median), 14 + 3 Days [2]: 3.9e+09 L⁻¹
Albumin (median), Baseline (Baseline, n = 44): 44.0 g/L
Creatinine (median), Baseline (Baseline, n = 44): 74.0 µmol/L
D-dimer (median), Baseline (Baseline, n = 44): 324.0 µg/L
ESR (median), Baseline (Baseline, n = 44): 18.0 mm/hr
Erythrocyte Sedimentation Rate (median), Baseline (Baseline, n = 44): 18.0 mm/hour
HbA1C (median), Baseline (Baseline, n = 44): 5.2%
Hematocrit (median), Baseline (Baseline, n = 44): 0.4 L/L
Hemoglobin (median), Baseline (Baseline, n = 44): 139.5 g/L
Lipid Assessment, HDL-C (median), Baseline (Baseline, n = 44): 1.1 mmol/L
Lipid Assessment, LDL-C (median), Baseline (Baseline, n = 44): 2.2 mmol/L
Lipid Assessment, Non-HDL-C (median), Baseline (Baseline, n = 44): 3.2 mmol/L
Lipid Assessment, Total Cholesterol (median), Baseline (Baseline, n = 44): 4.3 mmol/L
Lipid Assessment, Triglycerides (median), Baseline (Baseline, n = 44): 1.4 mmol/L
MCH (median), Baseline (Baseline, n = 44): 30.0 pg
MCHC (median), Baseline (Baseline, n = 44): 338.0 g/L
MCV (median), Baseline (Baseline, n = 44): 86.5 fL
NLR (neutrophil-lymphocyte ratio, median), Baseline (Baseline, n = 44): 1.7
Platelet (median), Baseline (Baseline, n = 44): 2.27e+11 L⁻¹
RBC Count (median), Baseline (Baseline, n = 44): 4.9e+12 L⁻¹
RDW (median), Baseline (Baseline, n = 44): 12.3 % CV
WBC Count (median), Baseline (Baseline, n = 44): 6.1e+09 L⁻¹
WBC Differential, Basophils (median), Baseline (Baseline, n = 44): 0 L⁻¹
WBC Differential, Eosinophils (median), Baseline (Baseline, n = 44): 1e+08 L⁻¹
WBC Differential, Lymphocytes (median), Baseline (Baseline, n = 44): 1.9e+09 L⁻¹
WBC Differential, Monocytes (median), Baseline (Baseline, n = 44): 5e+08 L⁻¹
WBC Differential, Neutrophils (median), Baseline (Baseline, n = 44): 3e+09 L⁻¹
eGFR (median), Baseline (Baseline, n = 44): 86.0 mL/min/1.73 m^2
hs-CRP median, Baseline (Baseline, n = 44, IQR 0.9, 11.6): 3.2 mg/L
SII (systemic immune-inflammation index, median), Baseline (Baseline, n = 44, product of NLR*platelets): 3.398e+11 L⁻¹
D-dimer (median), Day 14 + 3 (Day 14 + 3, n = 44, within-group P 0.048): 286.5 µg/L
Erythrocyte Sedimentation Rate (median), Day 14 + 3 (Day 14 + 3, n = 44, within-group P 0.20): 15.5 mm/hour
Median hs-CRP change at follow-up (baseline (day 1) to day 14+3, 8 g/day for 3 days, then 4 g/day for 11 days): -0.5 mg/L
hs-CRP Median Change from Baseline (baseline to day 14 + 3, n = 44, IQR −6.9, 0.4, within-group P 0.011, between-group P 0.082 unadjusted, 0.043 adjusted): -0.5 mg/L
hs-CRP Median Percent Change from Baseline (baseline to day 14 + 3, n = 44, IQR −80.1, 26.7): −25.0%
hs-CRP reduction from baseline levels (baseline to day 14+3, within IPE group): 25%
